Laboratory results reported in patent US20070191336A1 (priority 2003, published 2007).

Target: T1, phospho p-38 alpha kinase (Homo sapiens, UniProt Q16539)
T1 construct: purchased Panvera
Assay: P-38 alpha kinase assay (spectrophotometric, pyruvate kinase/lactate dehydrogenase coupled)
Assay type: biochemical
Settings: for IC50: Table 3, rates from […] to 2 h time frame; for inhibition at 0.1 µM / inhibition at 1 µM: read-out: % Inhibition @ concentration, Table 3
Procedure: In this assay, the oxidation of NADH was continuously measured spectrophometrically. […] The reaction was initiated by adding ATP. The absorption at 340 nm was monitored continuously for up to 4 hours at 30° C. on Polarstar Optima plate reader (BMG). The kinase activity (reaction rate) was calculated from the slope at the time frame from 1.5 h to 2 h.
For inhibition determinations, test compounds were incubated with the reaction mixture for ˜5 min before adding ATP to start the reaction. […] IC50 values were calculated from a series of % inhibition values determined at a range of concentrations of each inhibitor using Prism to process the data and fit inhibition curves. Generally, the rates obtained at the time frame of 1.5 h to 2 h were used for these calculations.

T1 sequence (Q16539 whole entry): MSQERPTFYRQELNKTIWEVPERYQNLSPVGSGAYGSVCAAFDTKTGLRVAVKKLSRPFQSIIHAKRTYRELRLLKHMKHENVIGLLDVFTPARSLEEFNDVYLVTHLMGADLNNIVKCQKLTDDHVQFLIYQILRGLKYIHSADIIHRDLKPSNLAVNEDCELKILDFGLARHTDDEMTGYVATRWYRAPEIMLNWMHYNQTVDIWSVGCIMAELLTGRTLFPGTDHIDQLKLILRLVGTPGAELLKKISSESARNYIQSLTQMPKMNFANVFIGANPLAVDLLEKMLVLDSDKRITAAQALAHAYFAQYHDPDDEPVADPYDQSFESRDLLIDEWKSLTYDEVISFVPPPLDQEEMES

| Structure (SMILES) | IC50 [nM] | inhibition at 0.1 µM [%] | inhibition at 1 µM [%] |
| --- | --- | --- | --- |
| CC(C)(C)c1cc(NC(=O)Nc2ccc(Cl)cc2)n(-c2cccc(C(N)=O)c2)n1 [Example 393, 1-[3-t-butyl-1-(3-carbamoylphenyl)-1H-pyrazol-5-yl]-3-(4-chlorophenyl)urea] | 400 |  |  |
| CC(C)(C)c1cc(NC(=O)Nc2cccc(F)c2F)n(-c2cccc(CO)c2)n1 [Example 395, 1-{3-t-butyl-1-[3-(hydroxymethyl)phenyl]-1H-pyrazol-5-yl}-3-(2,3-difluorophenyl)urea] | 56 |  |  |
| CCOC(=O)c1cccc(-n2nc(C(C)(C)C)cc2NC(=O)Nc2ccc3c(c2)OCO3)c1 [Example 396, ethyl 3-{5-[3-(benzo[d][1,3]dioxo-5-yl)ureido]-3-t-butyl-1H-pyrazol-1-yl}benzoate] |  | 3 | 56 |
| CC(C)(C)c1cc(NC(=O)Nc2ccc3c(c2)OCO3)n(-c2cccc(CO)c2)n1 [Example 397, 1-(benzo[d][1,3]dioxol-5-yl)-3-(3-t-butyl-1-(3-(hydroxymethyl)phenyl)-1H -pyrazol-5-yl)urea] | 40 |  |  |
| CCOC(=O)Cc1cccc(-n2nc(C(C)(C)C)cc2NC(=O)Nc2ccc3c(c2)OCO3)c1 [Example 399, ethyl 2-(3-{5-[3-(benzo[d][1,3]dioxol-5-yl)ureido]-3-t-butyl-1H-pyrazol-1-yl}phenyl)-acetate] |  | 21 | 74 |
| CC(C)(C)c1cc(NC(=O)Nc2ccc3c(c2)OCO3)n(-c2cccc(CCN)c2)n1 [Example 404, 1-{1-[3-(2-aminoethyl)phenyl]-3-t-butyl-1H-pyrazol-5-yl}-3-(benzo[d][1,3]dioxol-5-yl)urea] |  | -11 | 48 |
| CC(C)(C)c1cc(NC(=O)Nc2cccc(Cl)c2)n(-c2cccc(CO)c2)n1 [Example 406] | 13.4 |  |  |
| CC(C)(C)c1cc(NC(=O)Nc2cccc(Br)c2)n(-c2cccc(CO)c2)n1 [Example 407, 1-{3-t-butyl-1-[3-(hydroxymethyl)phenyl]-1H-pyrazol-5-yl}-3-(3-bromophenyl)urea] | 10.3 |  |  |
| CC(C)(C)c1cc(NC(=O)Nc2cccc(C(F)(F)F)c2)n(-c2cccc(CO)c2)n1 [Example 408, 1-{3-t-butyl-1-[3-(hydroxymethyl)phenyl]-1H-pyrazol-5-yl}-3-(3-(trifluoromethyl)phenyl)urea] | 116 |  |  |
| COc1cccc(NC(=O)Nc2cc(C(C)(C)C)nn2-c2cccc(CO)c2)c1 [Example 409, 1-{3-t-butyl-1-[3-(hydroxymethyl)phenyl]-1H-pyrazol-5-yl}-3-(3-methoxyphenyl)urea] | 30.9 |  |  |
| COc1ccc(-n2nc(C(C)(C)C)cc2NC(=O)Nc2cccc(F)c2F)cc1 [Example 415, 1-[3-t-butyl-1-(4-methoxyphenyl)-1H-pyrazol-5-yl]-3-(2,3-difluorophenyl)urea] |  | 28 | 69 |
| CCOC(=O)CCc1cccc(-n2nc(C(C)C)cc2NC(=O)Nc2ccc(Cl)cc2)c1 [Example 416, ethyl 3-(3-(5-(3-(4-chlorophenyl)ureido)-3-isopropyl-1H-pyrazol-1-yl)phenyl)propanoate] |  | 67 | 83 |
| CC(C)(C)c1cc(NC(=O)Nc2cccc(F)c2F)n(-c2ccc(CO)cc2)n1 [Example 418, 1-{3-t-butyl-1-[4-(hydroxymethyl)phenyl]-1H-pyrazol-5-yl}-3-(2,3-difluoro-phenyl)urea] | 75 |  |  |
| CCOC(=O)Cc1ccc(-n2nc(C(C)(C)C)cc2NC(=O)Nc2ccc(Cl)cc2)cc1 [Example 420, ethyl 2-(4-{3-t-butyl-5-[3-(4-chlorophenyl)ureido]-1H-pyrazol-1-yl}phenyl)acetate] | 14.7 |  |  |
| CCOC(=O)Cc1ccc(-n2nc(C(C)(C)C)cc2NC(=O)Nc2cccc(Cl)c2Cl)cc1 [Example 421] | 14.7 |  |  |
| CC(Cc1cccc(-n2nc(C(C)(C)C)cc2NC(=O)Nc2cccc(Cl)c2Cl)c1)C(=O)O (stereo not drawn) [Example 426, 3-(3-{3-t-butyl-5-[3-(2,3-dichlorophenyl)ureido]-1H-pyrazol-1-yl}-phenyl)-2-methylpropanoic acid] | 13 |  |  |
